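Cultured in 96-well plates, cells were exposed to test compound for 48 hours across five concentrations. At the GI50, growth is halved. The concentration for full growth arrest is given as TGI.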
Tests used:
Assay in all cases: NCI tumour cell line growth inhibition, 48 h
RPMI-8226 leukemia = system: RPMI-8226 leukemia
SN12C renal = system: SN12C renal
HOP-62 NSCLC = system: HOP-62 NSCLC
MCF7 breast = system: MCF7 breast
IGROV1 ovarian = system: IGROV1 ovarian
EKVX NSCLC = system: EKVX NSCLC
SW-620 colon = system: SW-620 colon
TK-10 renal = system: TK-10 renal
U251 CNS = system: U251 CNS
COLO 205 colon = system: COLO 205 colon
SF-295 CNS = system: SF-295 CNS
HOP-92 NSCLC = system: HOP-92 NSCLC
SK-MEL-28 melanoma = system: SK-MEL-28 melanoma
ACHN renal = system: ACHN renal
HCT-15 colon = system: HCT-15 colon
CAKI-1 renal = system: CAKI-1 renal
SK-MEL-5 melanoma = system: SK-MEL-5 melanoma
MOLT-4 leukemia = system: MOLT-4 leukemia
MALME-3M melanoma = system: MALME-3M melanoma
UACC-257 melanoma = system: UACC-257 melanoma
A498 renal = system: A498 renal
SNB-75 CNS = system: SNB-75 CNS
M14 melanoma = system: M14 melanoma
SK-OV-3 ovarian = system: SK-OV-3 ovarian
NCI-H522 lung = system: NCI-H522 lung
OVCAR-5 ovarian = system: OVCAR-5 ovarian
LOX IMVI melanoma = system: LOX IMVI melanoma
MDA-MB-231 breast = system: MDA-MB-231 breast
OVCAR-4 ovarian = system: OVCAR-4 ovarian
A549 NSCLC = system: A549 NSCLC
786-0 renal = system: 786-0 renal
PC-3 prostate = system: PC-3 prostate
K-562 leukemia = system: K-562 leukemia
SF-268 CNS = system: SF-268 CNS
SR leukemia = system: SR leukemia
NCI-H226 lung = system: NCI-H226 lung
SK-MEL-2 melanoma = system: SK-MEL-2 melanoma
NCI-H460 lung = system: NCI-H460 lung
MDA-MB-468 breast = system: MDA-MB-468 breast
HS 578T breast = system: HS 578T breast
UO-31 renal = system: UO-31 renal
KM12 colon = system: KM12 colon
T-47D breast = system: T-47D breast
SF-539 CNS = system: SF-539 CNS
DU-145 prostate = system: DU-145 prostate
UACC-62 melanoma = system: UACC-62 melanoma
HCC-2998 colon = system: HCC-2998 colon
OVCAR-3 ovarian = system: OVCAR-3 ovarian
BT-549 breast = system: BT-549 breast
HCT-116 colon = system: HCT-116 colon
NCI-H23 lung = system: NCI-H23 lung
RXF 393 renal = system: RXF 393 renal
CCRF-CEM leukemia = system: CCRF-CEM leukemia
HT29 colon = system: HT29 colon
SNB-19 CNS = system: SNB-19 CNS
MDA-MB-435 = system: MDA-MB-435

CN(C)c1ccnc(CNCCSC2(c3ccccc3)c3ccccc3C=Cc3ccccc32)c1
GI50 (RPMI-8226 leukemia): 1.62 µM | TGI (RPMI-8226 leukemia): 5.44 µM | GI50 (SN12C renal): 1.39 µM | TGI (SN12C renal): 6.53 µM | GI50 (HOP-62 NSCLC): 2.16 µM | TGI (HOP-62 NSCLC): 8.1 µM | GI50 (MCF7 breast): 0.419 µM | TGI (MCF7 breast): 2.39 µM | GI50 (IGROV1 ovarian): 2.94 µM | TGI (IGROV1 ovarian): 17.1 µM | GI50 (EKVX NSCLC): 2.44 µM | TGI (EKVX NSCLC): 13.9 µM | GI50 (SW-620 colon): 0.579 µM | TGI (SW-620 colon): 2.26 µM | GI50 (TK-10 renal): 3.09 µM | TGI (TK-10 renal): 14.8 µM | GI50 (U251 CNS): 0.38 µM | TGI (U251 CNS): 1.6 µM | GI50 (COLO 205 colon): 1.61 µM | TGI (COLO 205 colon): 3.11 µM | GI50 (SF-295 CNS): 1.8 µM | TGI (SF-295 CNS): 5.18 µM | GI50 (HOP-92 NSCLC): 1.25 µM | TGI (HOP-92 NSCLC): 5.18 µM | GI50 (SK-MEL-28 melanoma): 2.02 µM | TGI (SK-MEL-28 melanoma): 4.11 µM | GI50 (ACHN renal): 1.44 µM | TGI (ACHN renal): 12.2 µM | GI50 (HCT-15 colon): 0.52 µM | TGI (HCT-15 colon): 11.4 µM | GI50 (CAKI-1 renal): 2.29 µM | TGI (CAKI-1 renal): 12.3 µM | GI50 (SK-MEL-5 melanoma): 1.46 µM | TGI (SK-MEL-5 melanoma): 2.78 µM | GI50 (MOLT-4 leukemia): 2.49 µM | TGI (MOLT-4 leukemia): 12.4 µM | GI50 (MALME-3M melanoma): 1.54 µM | TGI (MALME-3M melanoma): 3.16 µM | GI50 (UACC-257 melanoma): 1.79 µM | TGI (UACC-257 melanoma): 4.18 µM | GI50 (A498 renal): 9.97 µM | TGI (A498 renal): 25.3 µM | GI50 (SNB-75 CNS): 1.56 µM | TGI (SNB-75 CNS): 6.29 µM | GI50 (M14 melanoma): 0.71 µM | TGI (M14 melanoma): 2.5 µM | GI50 (SK-OV-3 ovarian): 2.8 µM | TGI (SK-OV-3 ovarian): 9.04 µM | GI50 (NCI-H522 lung): 1.4 µM | TGI (NCI-H522 lung): 3.36 µM | GI50 (OVCAR-5 ovarian): 2.45 µM | TGI (OVCAR-5 ovarian): 7.64 µM | GI50 (LOX IMVI melanoma): 1.43 µM | TGI (LOX IMVI melanoma): 2.77 µM | GI50 (MDA-MB-231 breast): 1.46 µM | TGI (MDA-MB-231 breast): 3.63 µM | GI50 (OVCAR-4 ovarian): 3.56 µM | TGI (OVCAR-4 ovarian): 16 µM | GI50 (A549 NSCLC): 0.556 µM | TGI (A549 NSCLC): 5.83 µM | GI50 (786-0 renal): 1.62 µM | TGI (786-0 renal): 3.98 µM | GI50 (PC-3 prostate): 1.31 µM | TGI (PC-3 prostate): 6.91 µM | GI50 (K-562 leukemia): 0.38 µM | TGI (K-562 leukemia): > 100 µM | GI50 (SF-268 CNS): 1.86 µM | TGI (SF-268 CNS): 7.62 µM | GI50 (SR leukemia): 0.798 µM | TGI (SR leukemia): 5.04 µM | GI50 (NCI-H226 lung): 2.46 µM | TGI (NCI-H226 lung): 8.8 µM | GI50 (SK-MEL-2 melanoma): 2.2 µM | TGI (SK-MEL-2 melanoma): 4.89 µM | GI50 (NCI-H460 lung): 1.61 µM | TGI (NCI-H460 lung): 3.13 µM | GI50 (MDA-MB-468 breast): 0.46 µM | TGI (MDA-MB-468 breast): 2.06 µM | GI50 (HS 578T breast): 1.99 µM | TGI (HS 578T breast): 5.92 µM | GI50 (UO-31 renal): 2.16 µM | TGI (UO-31 renal): 11.4 µM | GI50 (KM12 colon): 1.44 µM | TGI (KM12 colon): 3.24 µM | GI50 (T-47D breast): 2.48 µM | TGI (T-47D breast): 9.26 µM | GI50 (SF-539 CNS): 1.47 µM | TGI (SF-539 CNS): 2.83 µM | GI50 (DU-145 prostate): 2.85 µM | TGI (DU-145 prostate): 8.11 µM | GI50 (UACC-62 melanoma): 2.17 µM | TGI (UACC-62 melanoma): 5.39 µM | GI50 (HCC-2998 colon): 1.41 µM | TGI (HCC-2998 colon): 2.98 µM | GI50 (OVCAR-3 ovarian): 1.73 µM | TGI (OVCAR-3 ovarian): 4.87 µM | GI50 (BT-549 breast): 1.91 µM | TGI (BT-549 breast): 5 µM | GI50 (HCT-116 colon): 0.526 µM | TGI (HCT-116 colon): 2.1 µM | GI50 (NCI-H23 lung): 2.57 µM | TGI (NCI-H23 lung): 7.46 µM | GI50 (RXF 393 renal): 1.25 µM | TGI (RXF 393 renal): 4.5 µM | GI50 (CCRF-CEM leukemia): 0.681 µM | TGI (CCRF-CEM leukemia): 11.9 µM | GI50 (HT29 colon): 1.69 µM | TGI (HT29 colon): 3.92 µM | GI50 (SNB-19 CNS): 3.75 µM | TGI (SNB-19 CNS): 15.2 µM | GI50 (MDA-MB-435): 0.215 µM | TGI (MDA-MB-435): 0.495 µM

From PubChem BioAssay (NCI)
